Data as given in patent publication US12552812B2, “Pyridone multiple-membered ring derivatives and use thereof” (priority 2021, dated 2026).
Where two headings read alike, the source gives them in different places.

Legend:
in vitro [1] = assay type: in vitro ADME, CD-1 mouse; conditions: CD-1; mouse (M) plasma, 2 μM, 37° C., 4 hours; read-out: Plasma protein binding (PPB) unbound (%)
Method: (§1) Experimental purpose: To evaluate the protein binding rate of the compounds of the present disclosure in the plasma of CD-1 mouse, SD rat, and human using equilibrium dialysis.
(§2) Experimental protocol: The test compounds were diluted with dialysis buffer into the plasma of the above […] to prepare samples with a final concentration of 2 μM. The samples were then added to a 96-well equilibrium dialysis device and dialyzed using phosphate buffer solution at 37° C. for 4 hours. Warfarin was used as a control compound in the experiment. The concentration of the test compounds and warfarin in the plasma and buffer was determined using LC-MS/MS.

[2] = test system: influenza virus A/PR/8/34 (H1N1); experiment: Influenza virus cytopathic effect (CPE) assay in MDCK cells; assay type: cell-based; conditions: 120 h, 5 days, CCK8
in vivo [3] = experiment: in vivo; parameters: species or system male SD rats; conditions: male, SD, iv, 1 mg/kg, rat, 1 mpk
Method: Experimental purpose: To investigate the plasma pharmacokinetics of the compounds of the present disclosure in male SD rats after a single intravenous injection or an oral administration.
Experimental animals: male SD rats, 6 to 8 weeks old, weighing between 200 to 300 g;
Experimental procedure: Injection administration (i.v.) was carried out with a dose of 1 mpk, at a concentration of 0.50 mg/mL, with a vehicle of 40% DMAC+40% PG+20% (20% HP-β-CD+water). Oral administration (po) was carried out with a dose of 10 mpk, at a concentration of 1 mg/mL, with a vehicle of 3% DMSO+10% solutol HS+87% water.
(§3) Sample collection: At each time point, 0.03 mL of blood samples were collected from the experimental animals through a puncture of the saphenous vein. The actual blood collection time was recorded. All blood samples were kept in commercially available 1.5 mL EDTA-K2 anticoagulant tubes. After blood sample collection, DDV was added into the plasma matrix as a stabilizer, wherein the ratio of plasma to Dichlorvos (DDV) solution was 40:1. The DDV solution was a 40 mM DDV solution in acetonitrile/water (1:1). Within half an hour, the mixture was centrifuged at 4° C. and 3000 g for 10 minutes. The supernatant plasma was aspirated, quickly placed in dry ice, and stored in a −80° C. refrigerator for LC-MS/MS analysis.
Data analysis: A non-compartmental model in Phoenix WinNonlin 6.3 pharmacokinetic software was used to process the plasma concentration data. The pharmacokinetic parameters were calculated using the linear-log trapezoidal method: Cl (apparent clearance rate), T1/2 (the time required to clear half of the compound), Cmax (peak concentration), and AUC0-last (integral area under the concentration-time curve from 0 to the last sampling time).

in vitro [4] = assay type: in vitro ADME; conditions: 2 μM, 37° C., 4 hours, read-out: Plasma protein binding (PPB) unbound (%)
Method: as §1, §2

in vivo [5] = experiment: in vivo; parameters: species or system male beagle dogs; conditions: male, iv, 1 mg/kg, beagle dog, 1 mpk
Method: Experimental purpose: To investigate the plasma pharmacokinetics of the compounds of the present disclosure in male beagle dogs after a single intravenous injection or an oral administration.
Experimental animals: male beagle dogs, >6 months old, weighing between 6 to 12 kg.
Experimental procedure: Injection administration (i.v.) was carried out with a dose of 1 mpk, at a concentration of 1 mg/mL, with a vehicle of 10% DMAC+90% (20% HP-β-CD+water). Oral administration (po) was carried out with a dose of 10 mpk, at a concentration of 2 mg/mL, with a vehicle of 3% DMSO+10% solutol HS+87% water.
as §3, with “0.8” for “0.03”
Data analysis: A non-compartmental model in Phoenix WinNonlin 6.3 pharmacokinetic software was used to process the plasma concentration data. The pharmacokinetic parameters were calculated using the linear-log trapezoidal method: Cl, T1/2, Cmax, and AUC0-last.

[6] = test system: influenza A virus A/PR/8/34 (H1N1); assay type: in vivo, BALB/c mice; conditions: for Survival rate (percentage): end of the experiment (day 14); for Maximum rate of weight loss / day N of maximum rate of weight loss: mouse, in vivo

O=C1c2c(O)c(=O)ccn2N([C@H]2c3ccc(F)c(F)c3C[Se]c3cccnc32)[C@@H]2COCCN12 [Compound 3]
fraction unbound (in vitro [1]): 0.137 | EC50 [2]: 2.8 nM | AUC(0-t) (in vivo [3]): 0.171 µM·h | clearance (in vivo [3]): 178 mL/min/kg | half-life (in vivo [3]): 1.7 h | fraction unbound (in vitro [4]; SD, rat (R) plasma): 0.313 | fraction unbound (in vitro [4]; crab-eating macaque (C) plasma): 0.316 | fraction unbound (in vitro [4]; dog (D) plasma): 0.246 | fraction unbound (in vitro [4]; human (H) plasma): 0.259 | AUC(0-t) (in vivo [5]): 0.83 µM·h | clearance (in vivo [5]): 36.8 mL/min/kg | half-life (in vivo [5]): 3.7 h

O=C1c2c(O)c(=O)ccn2N([C@@H]2c3ccc(F)c(F)c3C[Se]c3cccnc32)[C@@H]2COCCN12 [Compound 3′]
EC50 [2]: 157 nM

COC(=O)OCOc1c2n(ccc1=O)N([C@H]1c3ccc(F)c(F)c3C[Se]c3cccnc31)[C@@H]1COCCN1C2=O [Compound 4]
Survival rate (percentage) [6]: 100% | Maximum rate of weight loss [6]: 7.03% | day N of maximum rate of weight loss [6]: 3 days

COC(=O)OCOc1c2n(ccc1=O)N([C@@H]1c3ccccc3[Se]Cc3c1ccc(F)c3F)[C@@H]1COCCN1C2=O [Compound 5]
Survival rate (percentage) [6]: 100% | Maximum rate of weight loss [6]: 13.77% | day N of maximum rate of weight loss [6]: 7 days
